According to patent publication US20040229791A1, “Compositions and methods of modulating TGF-beta activity by fatty acids” (priority 2002, published 2004):

Target: T1, TGF-β1-α2M* complex (Homo sapiens, UniProt P01023)
T1 construct: was purified from pooled citrate-treate human plasma; from tissue; host or cells: pooled citrate-treated human plasma
T1 sequence (P01023 24-1474): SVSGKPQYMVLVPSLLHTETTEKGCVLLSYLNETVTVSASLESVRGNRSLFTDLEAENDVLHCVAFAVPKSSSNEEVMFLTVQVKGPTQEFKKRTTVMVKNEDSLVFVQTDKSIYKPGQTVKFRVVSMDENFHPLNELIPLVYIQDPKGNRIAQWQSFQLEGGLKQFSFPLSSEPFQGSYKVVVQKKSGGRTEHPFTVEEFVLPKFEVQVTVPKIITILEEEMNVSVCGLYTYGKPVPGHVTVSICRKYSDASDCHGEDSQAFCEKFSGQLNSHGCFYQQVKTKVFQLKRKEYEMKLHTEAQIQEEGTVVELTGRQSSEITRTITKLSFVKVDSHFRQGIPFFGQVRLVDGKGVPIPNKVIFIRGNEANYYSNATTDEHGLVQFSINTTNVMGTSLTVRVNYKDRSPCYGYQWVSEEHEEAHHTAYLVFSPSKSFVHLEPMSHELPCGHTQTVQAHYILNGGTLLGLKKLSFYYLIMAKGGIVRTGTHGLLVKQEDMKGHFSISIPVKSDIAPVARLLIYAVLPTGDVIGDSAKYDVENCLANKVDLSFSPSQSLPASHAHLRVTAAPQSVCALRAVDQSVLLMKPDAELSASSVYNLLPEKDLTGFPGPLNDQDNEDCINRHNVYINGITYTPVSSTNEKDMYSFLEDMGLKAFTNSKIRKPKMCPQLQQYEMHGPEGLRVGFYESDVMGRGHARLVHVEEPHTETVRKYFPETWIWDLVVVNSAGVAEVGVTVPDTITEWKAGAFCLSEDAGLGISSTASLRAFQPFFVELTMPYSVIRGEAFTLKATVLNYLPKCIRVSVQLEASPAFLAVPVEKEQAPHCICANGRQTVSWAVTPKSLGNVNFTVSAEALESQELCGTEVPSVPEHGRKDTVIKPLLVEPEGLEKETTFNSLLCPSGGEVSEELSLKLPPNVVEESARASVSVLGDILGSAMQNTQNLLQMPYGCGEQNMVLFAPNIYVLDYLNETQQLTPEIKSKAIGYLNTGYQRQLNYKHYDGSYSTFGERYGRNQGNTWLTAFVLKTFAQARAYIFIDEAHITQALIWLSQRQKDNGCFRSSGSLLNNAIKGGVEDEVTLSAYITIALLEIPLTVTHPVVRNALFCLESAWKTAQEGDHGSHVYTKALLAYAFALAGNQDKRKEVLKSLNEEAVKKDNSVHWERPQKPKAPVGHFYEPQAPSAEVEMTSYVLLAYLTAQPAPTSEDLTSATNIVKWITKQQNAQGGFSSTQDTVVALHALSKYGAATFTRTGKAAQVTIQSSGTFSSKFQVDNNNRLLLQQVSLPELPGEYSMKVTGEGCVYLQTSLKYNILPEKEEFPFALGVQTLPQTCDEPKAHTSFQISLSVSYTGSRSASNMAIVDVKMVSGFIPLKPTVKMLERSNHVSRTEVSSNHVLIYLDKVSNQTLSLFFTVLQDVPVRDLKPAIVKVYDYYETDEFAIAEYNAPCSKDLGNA
Test: Inhibition of 125I-TGF-β1 and α2M* complex formation (5% non-denaturing PAGE, autoradiography)
Type: binding
Settings: ~1 nM 125I-TGF-β1, 10 μg α2M* in 0.05 ml, 30 min room temperature, non-denaturing PAGE; read-out: IC50 for inhibiting complex formation between TGF-β1 and α2M*
Procedure: Saturated and unsaturated fatty acids are present in plasma and tissues (25,26). The effects of various concentrations of saturated fatty acids on the formation of complexes between ^125I-TGF ? β1 and ? 2M* were examined. ^125I-TGF- ? 1 (1 nM) was incubated μg/ml) in the presence of various concentrations of n-caprylic acid ([…]), lauric acid (12 carbon atoms), myristic acid (14 carbon atoms), palmitic acid (16 carbon atoms) and stearic acid (18 carbon atoms). After 30 min at room temperature, the reaction mixture was analyzed by 5% non-denaturing PAGE and autoradiography, a standard method form determining complex formation between TGF-β and α2M* (12). […] At 100 μM, it inhibited 20% of the complex formation between TGF ? β1 and α2M*. Esterification consistently abolished the inhibitory activities of the fatty acids.
Complex formation of ^125I-TGF-β and ? 2M*—The reaction mixture contained 10 μg of . α2M*, ˜1 nM of ^125I-TGF- ? 1, ^125I-TGF ? β2 or ^125I-TGF ? acids (dissolved in 100% ethanol) in 0.05 ml of 50 mM HEPES-NaOH buffer, pH 7.4. The final concentration of ethanol in the reaction mixture was 0.5%. These fatty acids and fatty acid derivatives were soluble under the experimental conditions. After 30 min at room temperature, the complex formation of ^125I-TGF- ? and. α2M* was determined by 5% non-denaturing polyacrylamide gel electrophoresis (PAGE) or by 7.5% SDS-PAGE following cross-linking by 0.6 mM DSS. After electrophoresis, the gel was stained with Coomassie blue and analyzed by autoradiography. The ^125I-TGF- ? - ? 2M* complex which co-migrated with free ? 2M* was quantified using a PhosphoImager (Fuji).

In the case of `CCCCC/C=C\C/C=C\C/C=C\C/C=C\CCCC(=O)O` [arachidonic acid], the IC50 is reported as 7.8 ± 1.4 µM.
